36 compounds from patent US8093231B2, “Sulfonylethyl phosphorodiamidates” (Telik, Inc., priority 2004, dated 2012) can be followed below.

Common to all, as to format: cell-based, human
Test [1] relates to LNCap (prostate carcinoma). The experiment in a line: Cytotoxicity/growth inhibition assay, LNCap. Conditions: read-out: IC50 (LNCap). The source says: (§1) The human cancer cell lines DLD-1 (colorectal adenocarcinoma), LNCap (prostate carcinoma), and OVCAR-3 (ovarian carcinoma) were obtained from the American Type Culture Collection, Manassas, Va., U.S.A., and HL-60 (promyeloid myelocytic leukemia), MX-1 (breast carcinoma), P388, and P388ADR from the National Cancer Institute, Bethesda, Md., U.S.A. Carboplatin, doxorubicin, and melphalan were obtained from Sigma-Aldrich Chemical Company, St. Louis, Mo., U.S.A. The CellTiter-Glo assay kit was obtained from Promega Corporation, Madison, Wis., U.S.A., and the Cellular DNA Cytometric Analysis Reagent Kit from Roche Diagnostics Corporation, Indianapolis, Ind., U.S.A. Lambda DNA was obtained from New England Biolabs, Beverly, Mass., U.S.A., and SYBR-Gold from Molecular Probes, Inc., Eugene, Oreg., U.S.A. The DNeasy Tissue Kit was obtained from Qiagen Inc., Valencia, Calif., U.S.A., and AmpliTaq Gold DNA polymerase and PCR reagents from Applied Biosystems, Foster City, Calif., U.S.A. All products were used in accordance with manufacturer's directions. All assays were conducted in triplicate wells, with dimethyl sulfoxide (DMSO) solvent control. The extent of cell growth was expressed as a percentage of the signal from the solvent control wells.
(§2) Log-phase cells were trypsinized, collected by centrifugation, and resuspended in a small volume of fresh medium, and the density of viable cells was determined following Trypan Blue staining. Cells were diluted in fresh media (3×10^3 cells/mL for MX-1, 3×10^3 cells/mL for DLD-1, and 6×10^3 cells/mL for LNCap cells), the test compounds (concentrations between 0.1 and 200 μM, dissolved in DMSO, 50 μL) added immediately after dilution to achieve a final DMSO concentration of 0.5%, then the suspensions added at 150 μL/well to 96-well plates, and incubated for several hours to allow attachment in the case of adherent cells. The cells were cultured for approximately three doubling times (3 days for MX-1 and 4 days for DLD-1 and LNCap). The cells were then collected by centrifugation, and 100 μL of the culture supernatant was replaced by the CellTiter-Glo reagent. After incubation for 15 minutes at room temperature, and the plate was read with a luminometer.

A further test concerns MX-1 (breast carcinoma). The experiment in a line: Cytotoxicity/growth inhibition assay, MX-1. Conditions: read-out: IC50 (MX-1).
Excerpt: as §1, §2

Test [2] deals with DLD-1 (colorectal adenocarcinoma). The experiment in a line: Cytotoxicity/growth inhibition assay, DLD-1. Conditions: read-out: IC50 (DLD-1).
Excerpt: as §1, §2

[3] abbreviates: LNCap cells, 4 days culture, CellTiter-Glo, 0.1-200 μM tested.
Setting [4] is: MX-1 cells, 3 days culture, CellTiter-Glo, 0.1-200 μM tested.
The mark [5] stands for this setting: DLD-1 cells, 4 days culture, CellTiter-Glo, 0.1-200 μM tested.

Like-named read-outs stand apart in the source and are kept apart here.

The IC50 is the concentration that inhibits the measured activity by half. Regarding `CCS(=O)(=O)CCOP(=O)(N(CCCl)CCCl)N(CCCl)CCCl` [Compound 1A], the IC50 in test [1] (setting [3]) came out at 57.1 µM; in the test on MX-1 (breast carcinoma) (setting [4]), 16.9 µM; in test [2] (setting [5]), 9.1 µM.

As to `O=P(OCCS(=O)(=O)CCS(=O)(=O)CCOP(=O)(N(CCCl)CCCl)N(CCCl)CCCl)(N(CCCl)CCCl)N(CCCl)CCCl` [Compound 1B], the IC50 in test [1] (setting [3]) was 5.1 µM; in the test on MX-1 (breast carcinoma) (setting [4]) it was 4 µM; in test [2] (setting [5]), 2.5 µM.

Take `O=P(OCCS(=O)(=O)CCOP(=O)(N(CCCl)CCCl)N(CCCl)CCCl)(N(CCCl)CCCl)N(CCCl)CCCl` [Compound 1C, di[2-[[bis[bis(2-chloroethyl)amino]phosphinyl]oxy]ethyl]sulfone]: the IC50 was 1.4 µM in test [1] (Homo sapiens, LNCaP, 96 h); 0.3 µM in the test with MX-1 (breast carcinoma) (Homo sapiens, MX1, 72 h); 0.3 µM in test [2] (Homo sapiens, DLD-1, 96 h).

Turning to `C=CS(=O)(=O)CCOP(=O)(N(CCCl)CCCl)N(CCCl)CCCl` [Compound 2A], the figures for the 50% inhibitory concentration (IC50) (in test [1] (setting [3]); in the test with MX-1 (breast carcinoma) (setting [4]); in test [2] (setting [5])) were 105 µM, 3.2 µM and 1.4 µM, respectively.

Turning to `CC(C(C)S(=O)(=O)CCOP(=O)(N(CCCl)CCCl)N(CCCl)CCCl)S(=O)(=O)CCOP(=O)(N(CCCl)CCCl)N(CCCl)CCCl` (stereo not drawn) [Compound 2B], the IC50 in test [1] (setting [3]) was 10.9 µM; in the test with MX-1 (breast carcinoma) (setting [4]), not below 200 µM; in test [2] (setting [5]), 0.3 µM.

Take `CCCS(=O)(=O)CCOP(=O)(N(CCCl)CCCl)N(CCCl)CCCl` [Compound 3A]: the IC50 amounted to 67.6 µM in test [1] (setting [3]), 11.4 µM in the test on MX-1 (breast carcinoma) (setting [4]) and 9.2 µM in test [2] (setting [5]).

Consider `O=C(O)CCNC(=O)CS(=O)(=O)CCOP(=O)(N(CCCl)CCCl)N(CCCl)CCCl` [Compound 39A], for which the half-maximal inhibitory concentration (IC50) in the test with MX-1 (breast carcinoma) (setting [4]) was determined as 30.8 µM; in test [2] (setting [5]), 13.3 µM.

Regarding `O=C(O)CNC(=O)CS(=O)(=O)CCOP(=O)(N(CCCl)CCCl)N(CCCl)CCCl` [Compound 40A], the IC50 with MX-1 (breast carcinoma) (setting [4]) was found to be 32 µM; in test [2] (setting [5]) it was 13 µM.

Consider `CC(C)(C)OC(=O)CC(NC(=O)CS(=O)(=O)CCOP(=O)(N(CCCl)CCCl)N(CCCl)CCCl)C(N)=O` (stereo not drawn) [Compound 41A], for which the figures for the half-maximal inhibitory concentration (IC50) (with MX-1 (breast carcinoma) (setting [4]); in test [2] (setting [5])) were 29.3 µM and 10.8 µM, respectively.

As for `CC(C)(C)OC(=O)[C@@H]1CCCN1C(=O)CS(=O)(=O)CCOP(=O)(N(CCCl)CCCl)N(CCCl)CCCl` [Compound 42A], the concentration for half-maximal inhibition (IC50) with MX-1 (breast carcinoma) (setting [4]) amounted to 7.6 µM; in test [2] (setting [5]) it was 4.7 µM.

For the compound `CC(NC(=O)CS(=O)(=O)CCOP(=O)(N(CCCl)CCCl)N(CCCl)CCCl)C(=O)OC(C)(C)C` (stereo not drawn) [Compound 44A], the IC50 with MX-1 (breast carcinoma) (setting [4]) amounted to 34.8 µM; in test [2] (setting [5]), 11.1 µM.

Turning to `CC(C)(C)OC(=O)CN1CCN(C(=O)CS(=O)(=O)CCOP(=O)(N(CCCl)CCCl)N(CCCl)CCCl)CC1` [Compound 47A], the IC50 in the test with MX-1 (breast carcinoma) (setting [4]) is 15.9 µM; in test [2] (setting [5]), 9.3 µM.

For `COCCNC(=O)CS(=O)(=O)CCOP(=O)(N(CCCl)CCCl)N(CCCl)CCCl` [Compound 48A], the IC50 in the test with MX-1 (breast carcinoma) (setting [4]) stood at 4.4 µM; in test [2] (setting [5]), 15.5 µM.

As to `O=C(CS(=O)(=O)CCOP(=O)(N(CCCl)CCCl)N(CCCl)CCCl)NCCO` [Compound 49A], the results for the IC50 (in the test with MX-1 (breast carcinoma) (setting [4]); in test [2] (setting [5])) were 29 µM and 11.6 µM, respectively.

For the compound `CCNC(=O)CS(=O)(=O)CCOP(=O)(N(CCCl)CCCl)N(CCCl)CCCl` [Compound 50A], the IC50 with MX-1 (breast carcinoma) (setting [4]) turned out to be 17.1 µM; in test [2] (setting [5]), 11.9 µM.

With `O=C(CS(=O)(=O)CCOP(=O)(N(CCCl)CCCl)N(CCCl)CCCl)N1CCOCC1` [Compound 51A], the concentration for half-maximal inhibition (IC50) in the test on MX-1 (breast carcinoma) (setting [4]) was 6.9 µM; in test [2] (setting [5]) it was 6.7 µM.

For the compound `O=C(CS(=O)(=O)CCOP(=O)(N(CCCl)CCCl)N(CCCl)CCCl)N1CCC(O)CC1` [Compound 52A], the 50% inhibitory concentration (IC50) in the test on MX-1 (breast carcinoma) (setting [4]) was 15.6 µM; in test [2] (setting [5]), 10.2 µM.

Take `CNC(=O)CCS(=O)(=O)CCOP(=O)(N(CCCl)CCCl)N(CCCl)CCCl` [Compound 53A]: the half-maximal inhibitory concentration (IC50) amounted to 11.3 µM in the test on MX-1 (breast carcinoma) (setting [4]) and 8.4 µM in test [2] (setting [5]).

Consider `CCNC(=O)CCS(=O)(=O)CCOP(=O)(N(CCCl)CCCl)N(CCCl)CCCl` [Compound 54A], for which the IC50 with MX-1 (breast carcinoma) (setting [4]) worked out at 9.3 µM; in test [2] (setting [5]), 7.4 µM.

For `O=C(CCS(=O)(=O)CCOP(=O)(N(CCCl)CCCl)N(CCCl)CCCl)NC1CC1` [Compound 55A], the half-maximal inhibitory concentration (IC50) turned out to be 14.7 µM with MX-1 (breast carcinoma) (setting [4]) and 10.1 µM in test [2] (setting [5]).

For the compound `O=C(CCS(=O)(=O)CCOP(=O)(N(CCCl)CCCl)N(CCCl)CCCl)NCCO` [Compound 56A], the 50% inhibitory concentration (IC50) in the test with MX-1 (breast carcinoma) (setting [4]) was 19.3 µM; in test [2] (setting [5]), 8.2 µM.

As for `COCCNC(=O)CCS(=O)(=O)CCOP(=O)(N(CCCl)CCCl)N(CCCl)CCCl` [Compound 57A], the IC50 came out at 18 µM in the test with MX-1 (breast carcinoma) (setting [4]) and 10.1 µM in test [2] (setting [5]).

For the compound `O=C(CCS(=O)(=O)CCOP(=O)(N(CCCl)CCCl)N(CCCl)CCCl)N1CCOCC1` [Compound 58A], the IC50 with MX-1 (breast carcinoma) (setting [4]) came to 17 µM; in test [2] (setting [5]), 12.9 µM.

On to `O=C(CCS(=O)(=O)CCOP(=O)(N(CCCl)CCCl)N(CCCl)CCCl)N1CCC(O)CC1` [Compound 59A], for which the results for the IC50 (in the test with MX-1 (breast carcinoma) (setting [4]); in test [2] (setting [5])) were 25.4 µM and 15.1 µM, respectively.

With `O=C(CS(=O)(=O)CCOP(=O)(N(CCCl)CCCl)N(CCCl)CCCl)NC1CC1` [Compound 60A], the results for the half-inhibitory concentration (IC50) (in the test with MX-1 (breast carcinoma) (setting [4]); in test [2] (setting [5])) were 11.3 µM and 7.4 µM, respectively.

Regarding `NC(=O)C(CC(=O)O)NC(=O)CS(=O)(=O)CCOP(=O)(N(CCCl)CCCl)N(CCCl)CCCl` (stereo not drawn) [Compound 61A], the IC50 in the test with MX-1 (breast carcinoma) (setting [4]) was 30.9 µM; in test [2] (setting [5]), 20 µM.

With `O=C(O)[C@@H]1CCCN1C(=O)CS(=O)(=O)CCOP(=O)(N(CCCl)CCCl)N(CCCl)CCCl` [Compound 62A], the IC50 in the test with MX-1 (breast carcinoma) (setting [4]) is 15 µM; in test [2] (setting [5]), 16.5 µM.

In the case of `CC(C)C(NC(=O)CS(=O)(=O)CCOP(=O)(N(CCCl)CCCl)N(CCCl)CCCl)C(=O)O` (stereo not drawn) [Compound 63A], the values for the 50% inhibitory concentration (IC50) (with MX-1 (breast carcinoma) (setting [4]); in test [2] (setting [5])) were 10 µM and 17.2 µM, respectively.

For `CC(NC(=O)CS(=O)(=O)CCOP(=O)(N(CCCl)CCCl)N(CCCl)CCCl)C(=O)O` (stereo not drawn) [Compound 64A], the half-maximal inhibitory concentration (IC50) with MX-1 (breast carcinoma) (setting [4]) came to 37.3 µM; in test [2] (setting [5]) it was 22 µM.

For the compound `NC(=O)CC(NC(=O)CS(=O)(=O)CCOP(=O)(N(CCCl)CCCl)N(CCCl)CCCl)C(=O)O` (stereo not drawn) [Compound 65A], the half-inhibitory concentration (IC50) in the test with MX-1 (breast carcinoma) (setting [4]) worked out at 31.8 µM; in test [2] (setting [5]) it was 21.4 µM.

Regarding `CS(=O)(=O)CCC(NC(=O)CS(=O)(=O)CCOP(=O)(N(CCCl)CCCl)N(CCCl)CCCl)C(=O)O` (stereo not drawn) [Compound 66A], the half-inhibitory concentration (IC50) turned out to be 29.1 µM in the test with MX-1 (breast carcinoma) (setting [4]) and 18.8 µM in test [2] (setting [5]).

In the case of `O=C(CS(=O)(=O)CCOP(=O)(N(CCCl)CCCl)N(CCCl)CCCl)N1CCNCC1` [Compound 68A], the values for the IC50 (in the test on MX-1 (breast carcinoma) (setting [4]); in test [2] (setting [5])) were 36.7 µM and 18 µM, respectively.

On to `O=C(CS(=O)(=O)CCOP(=O)(N(CCCl)CCCl)N(CCCl)CCCl)N1CCN(CCO)CC1` [Compound 69A], for which the IC50 came out at 34.6 µM in the test with MX-1 (breast carcinoma) (setting [4]) and 14.1 µM in test [2] (setting [5]).

In the case of `COC(=O)[C@H](CS(=O)(=O)CCOP(=O)(N(CCCl)CCCl)N(CCCl)CCCl)NS(C)(=O)=O` [Compound 79A, N-(Methanesulfonyl)-3-[[2-[[bis[bis(2-chloroethyl)amino]phosphinyl]oxy]ethyl]sulfonyl]-L-alanine methyl ester], the half-maximal inhibitory concentration (IC50) in the test on MX-1 (breast carcinoma) (Homo sapiens, MX1, 72 h) amounted to 88 µM; in test [2] (Homo sapiens, DLD-1, 96 h), 26.6 µM.

As to `O=C(Nc1cccc(CS(=O)(=O)CCOP(=O)(N(CCCl)CCCl)N(CCCl)CCCl)c1)C1CCCNC1` (stereo not drawn) [Compound 148A], the 50% inhibitory concentration (IC50) (in the test with MX-1 (breast carcinoma) (setting [4]); in test [2] (setting [5])) was not below 200 µM in each case.

On to `CN(C)CCNC(=O)c1ccc(CS(=O)(=O)CCOP(=O)(N(CCCl)CCCl)N(CCCl)CCCl)cc1` [Compound 173A], for which the IC50 in the test on MX-1 (breast carcinoma) (setting [4]) turned out to be 104 µM; in test [2] (setting [5]) it was 37.9 µM.
